Experimental data published in ChEMBL document CHEMBL1201862, “PubChem BioAssay data set” (2004).
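Grown in 96-well plates, cells were treated for 48 hours with each compound at five concentrations. Insufficient inhibition: endpoint recorded as highest concentration tested. GI50 is the concentration that inhibits growth by half.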 Activity calls are given as the source filed them. No stated cut-off is given here; in the data, active = GI50 up to about 1.1 µM and inactive = higher.

Key:
Assay in all cases: growth of human tumour cells (NCI), 48 h
HCC 2998 = system: HCC 2998
UACC-257 = system: UACC-257
EKVX = system: EKVX
SW-620 = system: SW-620
A549 = system: A549
HCT-116 = system: HCT-116
SF-295 = system: SF-295
TK-10 = system: TK-10
SF-539 = system: SF-539
HOP-92 = system: HOP-92
SNB-75 = system: SNB-75
NCI/ADR-RES = system: NCI/ADR-RES
SK-MEL-28 = system: SK-MEL-28
UO-31 = system: UO-31
SK-OV-3 = system: SK-OV-3
HOP-62 = system: HOP-62
SK-MEL-2 = system: SK-MEL-2
OVCAR-5 = system: OVCAR-5
786-0 = system: 786-0
SR = system: SR

Measured: GI50

C/C(=C\c1ccccc1)n1c(=O)cc(C)n1C
inactive: HCC 2998 > 100 µM | UACC-257 > 100 µM | EKVX > 100 µM | SW-620 > 100 µM | A549 > 100 µM | HCT-116 > 100 µM | SF-295 > 100 µM | TK-10 > 100 µM | SF-539 > 100 µM | HOP-92 > 100 µM | SNB-75 > 100 µM | NCI/ADR-RES > 100 µM | SK-MEL-28 > 100 µM | UO-31 > 100 µM | SK-OV-3 > 100 µM | HOP-62 > 100 µM | SK-MEL-2 > 100 µM | OVCAR-5 > 100 µM

COn1oc(=O)c2ccccc21
inactive: HCC 2998 > 100 µM | UACC-257 > 100 µM | EKVX > 100 µM | SW-620 > 100 µM | A549 > 100 µM | HCT-116 > 100 µM | SF-295 > 100 µM | TK-10 > 100 µM | SF-539 > 100 µM | HOP-92 > 100 µM | SNB-75 > 100 µM | NCI/ADR-RES > 100 µM | SK-MEL-28 > 100 µM | UO-31 > 100 µM | SK-OV-3 > 100 µM | HOP-62 > 100 µM | SK-MEL-2 > 100 µM | 786-0 > 100 µM | OVCAR-5 > 100 µM

Oc1cc(-c2ccc(Cl)cc2)nc2ncccc12
inactive: HCC 2998 69 µM | UACC-257 53.5 µM | EKVX 52.2 µM | SW-620 31.1 µM | A549 54.2 µM | TK-10 94.4 µM | SR 5.56 µM | SF-539 45.5 µM | HOP-92 41.2 µM | SNB-75 24.5 µM | NCI/ADR-RES 36 µM | SK-MEL-28 57.1 µM | UO-31 33 µM | SK-OV-3 46 µM | HOP-62 55 µM | SK-MEL-2 31 µM | OVCAR-5 > 100 µM

O=C1Nc2ccc(Br)cc2/C1=N/c1ccc(Cl)cc1
inactive: HCC 2998 19.1 µM | UACC-257 18.1 µM | EKVX 15.9 µM | SW-620 6.56 µM | A549 25.4 µM | HCT-116 14.3 µM | SF-295 3.63 µM | TK-10 21.8 µM | SR 6.21 µM | SF-539 3.58 µM | HOP-92 37.3 µM | NCI/ADR-RES 12.6 µM | SK-MEL-28 23.3 µM | UO-31 13.5 µM | SK-OV-3 40.8 µM | HOP-62 21.7 µM | 786-0 26.3 µM | OVCAR-5 18.2 µM

Oc1[nH]c(Nc2cccc(CC(F)(F)F)c2)nc2ncnc1-2
inactive: HCC 2998 > 100 µM | UACC-257 > 100 µM | EKVX > 100 µM | SW-620 > 100 µM | A549 > 100 µM | HCT-116 > 100 µM | SF-295 > 100 µM | TK-10 > 100 µM | SR > 100 µM | SF-539 > 100 µM | HOP-92 > 100 µM | SNB-75 95.5 µM | NCI/ADR-RES > 100 µM | SK-MEL-28 > 100 µM | UO-31 > 100 µM | SK-OV-3 > 100 µM | HOP-62 > 100 µM | SK-MEL-2 > 100 µM | 786-0 > 100 µM | OVCAR-5 > 100 µM

COC(C[C@H]1CCCC[C@]1(O)/C(=C\CO[Si](C(C)C)(C(C)C)C(C)C)Sc1ccccc1)OC
inactive: HCC 2998 16.5 µM | UACC-257 42.4 µM | EKVX 37.4 µM | A549 28.6 µM | HCT-116 22.5 µM | SF-295 32.4 µM | TK-10 > 100 µM | SR 20.7 µM | HOP-92 20.5 µM | SNB-75 18.1 µM | NCI/ADR-RES 87.3 µM | SK-MEL-28 50.6 µM | UO-31 42.2 µM | SK-OV-3 > 100 µM | HOP-62 50 µM | SK-MEL-2 22.7 µM | 786-0 39.4 µM | OVCAR-5 38.4 µM

COc1cc2c(cc1OCCCC(=O)Nc1cc(C(=O)Nc3cc(C(=O)Nc4cc(C(=O)NCCCN(C)C)n(C)n4)n(C)n3)n(C)n1)N=CC1CCCN1C2=O (centres undefined)
inactive: HCC 2998 41.9 µM | UACC-257 19 µM | EKVX > 100 µM | SW-620 5.21 µM | A549 55.2 µM | HCT-116 60.8 µM | SF-295 32.5 µM | TK-10 20.7 µM | SR 2.77 µM | SF-539 26.2 µM | HOP-92 4.68 µM | SNB-75 27.9 µM | NCI/ADR-RES 31.8 µM | SK-MEL-28 13.4 µM | UO-31 4.39 µM | SK-OV-3 45.2 µM | HOP-62 45.5 µM | SK-MEL-2 24.8 µM | 786-0 4.81 µM | OVCAR-5 32.6 µM

Cc1[nH]c(-c2ccccc2)c(O)c1C(=O)OC1CC(C)CCC1C(C)C (centres undefined)
inactive: UACC-257 15.7 µM | EKVX 11.7 µM | SW-620 15.7 µM | A549 13.4 µM | HCT-116 14.9 µM | SF-295 12.4 µM | SR 8.51 µM | SF-539 16.2 µM | HOP-92 17.6 µM | SNB-75 17.9 µM | NCI/ADR-RES 14.7 µM | SK-MEL-28 16.3 µM | UO-31 13.3 µM | SK-OV-3 15.3 µM | HOP-62 15.3 µM | SK-MEL-2 14.3 µM | 786-0 15.3 µM | OVCAR-5 14.2 µM

CON(C)c1nc(N)c(C#N)c(C#N)c1C#N
inactive: HCC 2998 > 10 µM | EKVX > 10 µM | SW-620 > 10 µM | A549 > 10 µM | HCT-116 > 10 µM | SF-295 > 10 µM | TK-10 > 10 µM | SR > 10 µM | SF-539 > 10 µM | SNB-75 > 10 µM | NCI/ADR-RES > 10 µM | SK-MEL-28 > 10 µM | UO-31 > 10 µM | SK-OV-3 > 10 µM | HOP-62 > 10 µM | SK-MEL-2 > 10 µM | OVCAR-5 > 10 µM

C[C@@H](NC(=O)[C@@H]1C[C@]1(C)COC(=O)c1cc([N+](=O)[O-])cc([N+](=O)[O-])c1)c1cccc2ccccc12
inactive: HCC 2998 > 100 µM | UACC-257 > 100 µM | EKVX > 100 µM | SW-620 > 100 µM | A549 > 100 µM | HCT-116 > 100 µM | SF-295 93.5 µM | TK-10 > 100 µM | SR > 100 µM | HOP-92 80.2 µM | SNB-75 37.1 µM | NCI/ADR-RES > 100 µM | SK-MEL-28 > 100 µM | UO-31 > 100 µM | SK-OV-3 > 100 µM | HOP-62 53 µM | SK-MEL-2 > 100 µM | 786-0 > 100 µM | OVCAR-5 > 100 µM
